Columns and labels:
[1] = tested on: Amyloid-β peptide release (Aβ42), HEK cells overexpressing APP (HEK-APP); assay: Amyloid-β peptide release (Aβ42) assay, AlphaLISA on supernatant of HEK-APP cells; format: cell-based; conditions: Homo sapiens, HEK293, 24 h incubation with compound, read-out: Ab42 IC50 Ranges
Experimental: (§1) Amyloid-β Peptide Release (Aβ42 & AβTotal) Assay to Determine IC50 Values.
(§2) Compounds are dissolved in and diluted in 100% DMSO and incubated with HEK-APP cells for 24 h at 37° C. in 5% CO2. The supernatant from HEK-APP cells are mixed with antibodies: for Aβ42 detection: AlphaLISA Amyloid-β 1-42 Kit (Perkin Elmer AL203L) Anti-Amyloid β1-42-specific antibody acceptor beads, biotinylated anti-Amyloid-“β1-42” antibody and streptavidin (SA) donor beads diluted in AlphaLISA buffer (to the instructions of the supplier). For Aβ total detection: Custom Anti-Amyloid-βtotal acceptor beads (6E10 acceptor beads), biotinylated anti-Amyloid “β1-42” antibody (Perkin Elmer AL203L) and streptavidin (SA) donor beads diluted in AlphaLISA buffer (to the instructions of the supplier). After addition of supernatant to the antibody mix, the assay is incubated for 4.5 h. Amyloid-β peptide release (Aβ42 & AβTotal) is measured with a Pherastar FS (BMG) multimode reader using the alphascreen module.

[2] = tested on: Amyloid-β peptide release (AβTotal), HEK cells overexpressing APP (HEK-APP); assay: Amyloid-β peptide release (AβTotal) assay, AlphaLISA on supernatant of HEK-APP cells; format: cell-based; conditions: ratio Abtot vs Ab42, HEK-APP cells, 24 h
Experimental: as §1, §2

SMILES | IC50 [1] [µM] | Abtot/Ab42 selectivity ranges [2]
Cc1ncc2oc(-c3ccc(NC(=O)Cc4cccc(C(F)(F)F)c4)cn3)nn12 [Example 14, N-[6-(5-Methyl-imidazo[5,1-b][1,2,4]oxadiazol-2-yl)-pyridin-3-yl]-2-(3-trifluoromethyl-phenyl)-acetamide] | 1 to 2.2 | c (c: 50 fold > selectivity ≥ 10 fold)
Cc1ncc2oc(-c3ccc(NC(=O)Cc4ccc(Cl)c(Cl)c4)cn3)nn12 [Example 12, 2-(3,4-Dichloro-phenyl)-N-[6-(5-methyl-imidazo[5,1-b][1,2,4]oxadiazol-2-yl)-pyridin-3-yl]-acetamide] | 0.5 to 1 | c (c: 50 fold > selectivity ≥ 10 fold)
Cc1ncc2sc(C(=O)N3CCCCC3c3ccccc3Cl)nn12 (centres unmarked) [Example 115, [2-(2-Chloro-phenyl)-piperidin-1-yl]-(5-methyl-imidazo[5,1-b][1,3,4]thiadiazol-2-yl)-methanone] | 0.5 to 1 | d (d: 10 fold > selectivity)
Cc1nc(C)n2nc(-c3ccc(C(=O)NCc4cccc5ccccc45)cc3)oc12 [Example 22, 4-(5,7-Dimethyl-imidazo[5,1-b][1,2,4]oxadiazol-2-yl)-N-naphthalen-1-ylmethyl-benzamide] | 0.5 to 1 | c (c: 50 fold > selectivity ≥ 10 fold)
COc1c(F)ccc(CC(=O)Nc2ccc(-c3nn4c(C)ncc4o3)cc2)c1F [Example 68, 2-(2,4-difluoro-3-methoxyphenyl)-N-(4-(5-methylimidazo[5,1-b][1,3,4]oxadiazol-2-yl)phenyl)acetamide] | 0.5 to 1 | b (b: 100 fold > selectivity ≥ 50 fold)
Cc1ncc2oc(-c3ccc(NC(=O)Cc4ccccc4OC(F)(F)F)cn3)nn12 [Example 81, N-[6-(5-Methyl-imidazo[5,1-b][1,2,4]oxadiazol-2-yl)-pyridin-3-yl]-2-(2-trifluoromethoxy-phenyl)-acetamide] | 1 to 2.2 | c (c: 50 fold > selectivity ≥ 10 fold)
Cc1ncc2oc(-c3ccc(NC(=O)Cc4csc5ccc(Cl)cc45)cc3)nn12 [Example 73, 2-(5-chlorobenzo[b]thiophen-3-yl)-N-(4-(5-methylimidazo[5,1-b] [1,3,4]oxadiazol-2-yl)phenyl)acetamide] | 1 to 2.2 | c (c: 50 fold > selectivity ≥ 10 fold)
Cc1ncc2oc(-c3ccc(NC(=O)Cc4cccc(F)c4F)cn3)nn12 [Example 79, 2-(2,3-Difluoro-phenyl)-N-[6-(5-methyl-imidazo[5,1-b][1,2,4]oxadiazol-2-yl)-pyridin-3-yl]-acetamide] | 1 to 2.2 | c (c: 50 fold > selectivity ≥ 10 fold)
Cc1ncc2sc(C(=O)N3CCCCC3c3cccc(C(F)(F)F)c3)nn12 (centres unmarked) [Example 116, (5-Methyl-imidazo[5,1-b][1,3,4]thiadiazol-2-yl)-[2-(3-trifluoromethyl-phenyl)-piperidin-1-yl]-methanone] | 1 to 2.2 | d (d: 10 fold > selectivity)
COc1ccc(Cl)c(CC(=O)Nc2ccc(-c3nn4c(C)ncc4o3)cc2)c1F [Example 69, 2-(6-chloro-2-fluoro-3-methoxyphenyl)-N-(4-(5-methylimidazo [5,1-b][1,3,4]oxadiazol-2-yl)phenyl)acetamide] | 0.5 to 1 | b (b: 100 fold > selectivity ≥ 50 fold)
Cc1ccc(C2CCCN2C(=O)c2nn3c(C)ncc3s2)cc1 (centres unmarked) [Example 119, (5-Methyl-imidazo[5,1-b][1,3,4]thiadiazol-2-yl)-(2-p-tolyl-pyrrolidin-1-yl)-methanone] | 0.1 to 0.5 | d (d: 10 fold > selectivity)
Cc1ncc2oc(-c3ccc(NC(=O)Cc4ccc(C(F)(F)F)cc4Br)cc3)nn12 [Example 5, 2-(2-Bromo-4-trifluoromethyl-phenyl)-N-[4-(5-methyl-imidazo[5,1-b][1,2,4]oxadiazol-2-yl)-phenyl]-acetamide] | 0.5 to 1 | c (c: 50 fold > selectivity ≥ 10 fold)
COc1cc(NC(=O)Cc2ccc(OC(F)(F)F)cc2)ccc1-c1nn2c(C)ncc2o1 [Example 34, N-(3-methoxy-4-(5-methylimidazo[5,1-b][1,3,4]oxadiazol-2-yl)phenyl)-2-(4-(trifluoromethoxy)phenyl)acetamide] | 0.5 to 1 | b (b: 100 fold > selectivity ≥ 50 fold)
CCOc1ccc(CC(=O)Nc2ccc(-c3nn4c(C)ncc4o3)cc2)cc1 [Example 8, 2-(4-Ethoxy-phenyl)-N-[4-(5-methyl-imidazo[5,1-b][1,2,4]oxadiazol-2-yl)-phenyl]-acetamide] | 1 to 2.2 | c (c: 50 fold > selectivity ≥ 10 fold)
COc1cc(NC(=O)Cc2cccc(C(F)(F)F)c2)ccc1-c1nn2c(C)ncc2o1 [Example 31, N-(3-methoxy-4-(5-methylimidazo[5,1-b][1,3,4]oxadiazol-2-yl)phenyl)-2-(3-(trifluoromethyl)phenyl)acetamide] | 0.1 to 0.5 | a (a: selectivity ≥ 100 fold)
Cc1ncc2oc(-c3ccc(C(=O)NCc4cccc(Cl)c4Cl)cc3)nn12 [Example 87, N-(2,3-dichlorobenzyl)-4-(5-methylimidazo[5,1-b][1,3,4]oxadiazol-2-yl)benzamide] | 1 to 2.2 | c (c: 50 fold > selectivity ≥ 10 fold)
Cc1ncc2sc(C(=O)N3CCCC3c3ccc(C(F)(F)F)cc3)nn12 (centres unmarked) [Example 112, (5-Methyl-imidazo[5,1-b][1,3,4]thiadiazol-2-yl)-[2-(4-trifluoromethyl-phenyl)-pyrrolidin-1-yl]-methanone] | 0.1 to 0.5 | d (d: 10 fold > selectivity)
Cc1cc(C)cc(CC(=O)Nc2ccc(-c3nn4c(C)ncc4o3)cc2)c1 [Example 51, 2-(3,5-Dimethyl-phenyl)-N-[4-(5-methyl-imidazo[5,1-b][1,2,4]oxadiazol-2-yl)-phenyl]-acetamide] | 0.5 to 1 | c (c: 50 fold > selectivity ≥ 10 fold)
Cc1ncc2sc(-c3nnc(NCc4ccc(Cl)c(Cl)c4)o3)nn12 [Example 102, (3,4-Dichloro-benzyl)-[5-(5-methyl-imidazo[5,1-b][1,3,4]thiadiazol-2-yl)-[1,3,4]oxadiazol-2-yl]-amine] | 0.1 to 0.5 | d (d: 10 fold > selectivity)
Cc1ncc2oc(-c3ccc(Nc4ccn(Cc5ccc(Cl)cc5)n4)cc3)nn12 [Example 29, [1-(4-Chloro-benzyl)-1H-pyrazol-3-yl]-[4-(5-methyl-imidazo[5,1-b][1,2,4]oxadiazol-2-yl)-phenyl]-amine] | 1 to 2.2 | d (d: 10 fold > selectivity)
Cc1ncc2oc(-c3ccc(Nc4nc5n(n4)CCCC5c4ccc(Cl)cc4Cl)cc3)nn12 (centres unmarked) [Example 25, [8-(2,4-Dichloro-phenyl)-5,6,7,8-tetrahydro-[1,2,4]triazolo[1,5-a]pyridin-2-yl]-[4-(5-methyl-imidazo[5,1-b][1,2,4]oxadiazol-2-yl)-phenyl]-amine] | 0.5 to 1 | c (c: 50 fold > selectivity ≥ 10 fold)
Cc1ncc2oc(-c3ccc(NC(=O)Cc4ccc(Cl)c(Cl)c4)cc3)nn12 [Example 77, 2-(3,4-dichlorophenyl)-N-(4-(5-methylimidazo[5,1-b][1,3,4]oxadiazol-2-yl)phenyl)acetamide] | 0.1 to 0.5 | a (a: selectivity ≥ 100 fold)
